Experimental data from patent US7420083B2, “Substituted aryloximes” (Wyeth, priority 2003, dated 2008).

Experiments:
human PAI-1 = human PAI-1 (Homo sapiens, UniProt P05121); assay: Assay for determining the IC50 of inhibition of PAI-1 (active PAI-1 bound to tPA-coated plate, 33B8 antibody detection); type: biochemical; details: human PAI-1 50 ng/ml, pH 7.5
Experimental: Assay for determining the IC50 of inhibition of PAI-1. This assay is based upon the non-SDS dissociable interaction between tPA and active PAI-1. Assay plates are initially coated with human tPA (10 μg/ml). Test compounds are dissolved in DMSO at 10 mM, then diluted with physiologic buffer (pH 7.5) to a final concentration of 1-50 μM. The test compounds are incubated with human PAI-1 (50 ng/ml) for 15 minutes at room temperature. The tPA-coated plate is washed with a solution of 0.05% Tween 20 and 0.1% BSA, then the plate is blocked with a solution of 3% BSA. An aliquot of the test compound/PAI-1 solution is then added to the tPA-coated plate, incubated at room temperature for 1 hour, and washed. Active PAI-1 bound to the plate is assessed by adding an aliquot of a 1:1000 dilution of the 33B8 monoclonal antibody against human PAI-1, and incubating the plate at room temperature for 1 hour (Molecular Innovations, Royal Oak, Mich.). The plate is again washed, and a solution of goat anti-mouse IgG-alkaline phosphatase conjugate is added at a 1:50,000 dilution in goat serum. The plate is incubated 30 minutes at room temperature, washed, and a solution of alkaline phosphatase substrate is added. The plate is incubated 45 minutes at room temperature, and color development is determined at OD405 nm. The quantitation of active PAI-1 bound to tPA at varying concentrations of the test compound is used to determine the IC50. Results are analyzed using a logarithmic best-fit equation. The assay sensitivity is 5 ng/ml of human PAI-1 as determined from a standard curve ranging from 0-100 ng/ml.

Sequence of human PAI-1 (P05121 24-402): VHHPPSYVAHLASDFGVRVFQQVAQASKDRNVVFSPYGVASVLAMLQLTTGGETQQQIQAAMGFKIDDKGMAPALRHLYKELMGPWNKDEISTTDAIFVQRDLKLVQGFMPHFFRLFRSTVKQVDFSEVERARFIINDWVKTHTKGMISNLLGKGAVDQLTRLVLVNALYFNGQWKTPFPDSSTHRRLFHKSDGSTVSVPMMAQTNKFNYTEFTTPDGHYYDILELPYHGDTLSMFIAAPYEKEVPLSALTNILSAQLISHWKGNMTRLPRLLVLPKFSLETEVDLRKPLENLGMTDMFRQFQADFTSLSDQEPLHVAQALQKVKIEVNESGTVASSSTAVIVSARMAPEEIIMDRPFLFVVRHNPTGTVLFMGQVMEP

Compound | IC50 (human PAI-1) [µM] | melting point
CC(C)(C)c1ccc(C=NOCCCOc2ccc(CC(=O)O)cc2)cc1 [Compound 4, {4-[3-(4-tert-Butyl-benzylideneaminooxy)-propoxy]-phenyl}-acetic Acid] | 34.2 | 56.2 to 59.2 °C
CC(=NOCCOc1ccc(C(=O)O)c(OC(=O)c2ccc(C(C)(C)C)cc2)c1)c1ccccc1 [Compound 6] | 16.7 | 
CC(C)(C)c1ccc(/C=N/OCCOc2ccc(C(=O)O)c(OC(=O)c3ccc(C(C)(C)C)cc3)c2)cc1 [Compound 10, 2-{[4-(tert-Butyl)benzoyl]oxy}-4-{2-[({(E)-[4-(tert-butyl)phenyl]methylidene}amino)oxy]ethoxy}benzoic Acid] | 17.8 | 148.1 to 150.1 °C
C/C(=N\OCCOc1ccc(C(=O)O)c(OC(=O)c2ccc(-c3ccccc3)cc2)c1)c1ccccc1 [Compound 15, 2-[([1,1′-Biphenyl]-4-ylcarbonyl)oxy]-4-[2-({[(E)-1-phenylethylidene]amino}oxy)ethoxy]benzoic Acid] | 18.9 | 157.5 to 159.1 °C
O=C(O)c1ccc(OCCCO/N=C/c2cc(C(F)(F)F)cc(C(F)(F)F)c2)cc1O [Compound 19, 4-{3-[({(E)-[3,5-Bis(trifluoromethyl)phenyl]methylidene}amino)oxy]propoxy}-2-hydroxybenzoic Acid] | 4.14 | 181.9 to 183.4 °C
CC/C(=N\OCCCOc1ccc(C(=O)O)c(NC(=O)c2ccc(C(F)(F)F)cc2)c1)c1ccc(C(C)(C)C)cc1 [Compound 21, 4-[3-({[(1E)-1-(4-tert-butylphenyl)propylidene]amino}oxy)propoxy]-2-{[4-(trifluoromethyl)benzoyl]amino}benzoic Acid] | 16.3 | 149.4 to 151 °C
O=C(Nc1cc(OCCCO/N=C/c2ccc(C(F)(F)F)cc2)ccc1C(=O)O)c1ccc(C(F)(F)F)cc1 [Compound 22, 2-{[4-(Trifluoromethyl)benzoyl]amino}-4-{3-[({(1E)-[4-(trifluoromethyl)phenyl]methylidene}amino)oxy]propoxy}benzoic Acid] | 4.14 | 208.6 to 209.6 °C
CC(C)(C)c1ccc(/C=N/OCCCOc2ccc(C(=O)O)c(NC(=O)c3ccccc3C(F)(F)F)c2)cc1 [Compound 24, 4-[3-({[(1E)-(4-tert-Butylphenyl)methylidene]amino}oxy)propoxy]-2-{[2-(trifluoromethyl)benzoyl]amino}benzoic acid] | 17.5 | 121.1 to 122 °C
O=C(O)c1ccc(OCCCO/N=C/c2ccc(C(F)(F)F)cc2)cc1NC(=O)c1ccccc1C(F)(F)F [Compound 25, 2-{[2-(Trifluoromethyl)benzoyl]amino}-4-{3-[({(1E)-[4-(trifluoromethyl)phenyl]methylidene}amino)oxy]propoxy}benzoic acid] | 26.8 | 147.2 to 147.9 °C
CC(C)(C)c1ccc(/C=N/OCCCOc2ccc(C(=O)O)c(NC(=O)c3cc(C(F)(F)F)cc(C(F)(F)F)c3)c2)cc1 [Compound 27, 2-{[3,5-Bis(trifluoromethyl)benzoyl]amino}-4-[3-({[(1E)-(4-tert-butylphenyl)methylidene]amino}oxy)propoxy]benzoic Acid] | 15.7 | 157.5 to 158.5 °C
O=C(Nc1cc(OCCCO/N=C/c2ccc(C(F)(F)F)cc2)ccc1C(=O)O)c1ccc(OC(F)(F)F)cc1 [Compound 30, 2-{[4-(Trifluoromethoxy)benzoyl]amino}-4-{3-[({(1E)-[4-(trifluoromethyl)phenyl]methylidene}amino)oxy]propoxy}benzoic Acid] | 15.9 | 
O=C(Nc1cc(OCCCO/N=C/c2ccc(-c3ccccc3)cc2)ccc1C(=O)O)c1cc(C(F)(F)F)cc(C(F)(F)F)c1 [Compound 31, 4-[3-({[(1E)-1,1′-Biphenyl-4-ylmethylidene]amino}oxy)propoxy]-2-{[3,5-bis(trifluoromethyl)benzoyl]amino}benzoic Acid] | 19.6 | 205 to 206 °C (dec.)
O=C(Nc1cc(OCCCO/N=C/c2ccc(C(F)(F)F)cc2)ccc1C(=O)O)c1cc(C(F)(F)F)cc(C(F)(F)F)c1 [Compound 32, 2-{[3,5-Bis(trifluoromethyl)benzoyl]amino}-4-{3-[({(1E)-[4-(trifluoromethyl)phenyl]methylidene}amino)oxy]propoxy}benzoic Acid] | 15.8 | 218 to 219 °C (dec.)
CC(C)(C)c1ccc(/C=N/OCc2ccc(C(=O)O)c(Br)c2)cc1 [Compound 33, 2-Bromo-4-[({[(1E)-(4-tert-butylphenyl)methylidene]amino}oxy)methyl]benzoic Acid] | 13.8 | 162 to 163 °C
